Assay results: patent US12440466B2, “Fatty acid derivatives for treating non-alcoholic steatohepatitis” (BASF AS, priority 2017, dated 2025)
Marks after values point to notes of the source that are not given here.

Assays:
[1] = tested on: LX-2 human hepatic stellate cells; assay: LX-2 cell viability by MTS assay; format: cell-based; conditions: LX-2 cells; 24 hours; Compound A 10-75 μM, OA 75 μM
Experimental: Stellate cells are resident liver cells and the major cell type involved in the initiation and progression of liver fibrosis. In Biological Example 20, in vitro studies were performed on cultured human stellate cells (LX-2 cells) to assess direct effects of Compound A on these cells. Cells were treated for 24 hours with Compound A (10 μM, 25 μM, 50 μM, or 75 μM) or oleic acid (OA; 75 μM) and bromodeoxyuridine (BrdU) incorporation was assessed to determine effects on proliferation. A MTS (3-(4,5-dimethylthiazol-2-yl)-5-(3-carboxymethoxyphenyl)-2-(4-sulfophenyl)-2H-tetrazolium) assay was used to determine cell viability.
Cell proliferation of LX-2 human hepatic stellate cells treated for 24 hours with 10-75 μM of Compound A or oleic acid (OA) (75 μM) was assessed by BrdU incorporation. The results are normalised mean values ±S.E.M. of 5 independent experiments for icosabutate and 2 independent experiments for OA. […] The reduction in proliferation by Compound A was 25-34% at 24 hours whereas OA had no effect. The comparisons were made by one-way ANOVA with Dunnett's correction for multiple comparisons.

ob/ob AMLN mice = assay: Hepatic steatosis and hepatic cholesterol content in ob/ob AMLN mice; format: in vivo, mouse; conditions: 8 weeks, Compound A 45-135 mg/kg, OCA 30 mg/kg
Experimental: Obese diet-induced B6.V-Lepob/Jrj mice (ob/ob) are consistently fibrosis (liver) prone when cholesterol (2%), 40% fat (containing 18% trans-fatty acids) and 20% fructose are added to a high-caloric diet (i.e., AMLN high-fat diet). ob/ob mice on AMLN diet (termed ‘ob/ob AMLN mice’) develop steatohepatitis and fibrosis within a shorter timeframe ([…]) compared with wild-type C57BL/6 mice (AMLN mice) fed the same diet. ob/ob AMLN mice provide an obese diet-induced model of NASH that also allows the study of effects on glycemic control. Development of NASH in the ob/ob AMLN model is confirmed by biopsy.
In Biological Examples 10, 13-14, and 16-18, studies were performed in male ob/ob mice (5 weeks old) fed an AMLN high-fat diet for 18 weeks, then randomized into 6 groups (n=10 per group) to receive either Compound A (at 3 different daily doses, 45 mg/kg, 90 mg/kg or 135 mg/kg) via diet, 30 mg/kg bw per day obeticholic acid (OCA) via diet, or no treatment (vehicle) for a further 8 weeks. Assessment of NASH related parameters and fibrosis was made at study end by quantitative immune histochemistry (IHC) measurements.

APOE*3Leiden.CETP mice = assay: Hepatic free cholesterol, cholesterol ester and triglyceride content (HPTLC) in APOE*3Leiden.CETP mice; format: in vivo, mouse; conditions: ApoE*3L-CETP mice, Western diet 0.25% cholesterol, 4 weeks; Compound A LD 0.3 mmol/kg bw/day; EPA/DHA ethyl esters HD 3 mmol/kg bw/day
Excerpt: The APOE*3Leiden.CETP double transgenic mouse expresses a variant of the human apolipoprotein E3 (APOE3), the APOE*3Leiden, in addition to the human apolipoprotein C1 (APOC1) and CETP. […] By increasing the cholesterol content of the diet in this model, all the characteristics of human NASH develop.
In Biological Example 25, the effects of Compound A alone and in combination with omega-3 fatty acid were studied. APOE*3Leiden.CETP mice were placed on a semi-synthetic high fat diet (24% fat w/w) with […] w/w. After a 4-week run-in period, low-responder mice were removed from the study and the remaining mice were sub-divided into groups of 8 mice each, matched for plasma cholesterol, triglycerides, blood glucose, body weight and age (t=0) and treatment was started. To facilitate mixing of the compounds, sunflower oil was added to a total oil volume of 10 mL/kg diet. Compound A was administered at 0.3 mmol/kg bw/day whilst the omega-3 fatty acid ethyl-esters (85% w/w EPA/DHA ethyl-esters) were administered at 3.0 mmol/kg bw/day. Both Compound A and the omega-3 ethyl esters were administered orally as admix to the high-fat diet. After 4 weeks of treatment, mice were sacrificed by C02 asphyxiation, the liver was collected and the hepatic content of free cholesterol, cholesterol ester and triglyceride were measured after extraction and separation by high performance thin layer chromatography.

STAM (model) mice = assay: Fibrosis area by Sirius Red staining, STAM model; format: in vivo, mouse; conditions: Sirius Red positive area, 6 weeks treatment, Compound A 37 mg/kg/day oral gavage
Excerpt: In Biological Example 8, pathogen-free 15-day-pregnant C57BL/6 mice were obtained from Charles River Laboratories in Japan Inc. (Kanagawa, Japan). NASH was established in male mice by a single subcutaneous injection of streptozotocin (STZ) (Sigma, USA) after birth and feeding with a high fat diet (HFD; CLEA) Japan, Japan) ad libitum after 4 weeks of age (day 28±2). Mice were randomised into 3 groups of 8 mice at 6 weeks of age the day before the start of treatment: vehicle (saline), Compound A and telmisartan (positive control). Treatment with Compound A at a dose of 37 mg/kg bw per day via oral gavage in conjunction with a high-fat diet was given for 6 weeks before sacrifice. NAFLD activity score (NAS) was calculated according to standardised criteria and fibrosis area was assessed via Sirius Red staining.

Col1a1 mRNA = assay: Hepatic Col1a1 mRNA expression by qPCR, CDAA/high-fat diet mouse model; format: in vivo; conditions: CDAA/high-fat fed mice
Excerpt: Mice were fed either choline-sufficient (CS) or choline deficient high-fat diets (31% total calories; “CDAA/high-fat”). The NASH inducing diet was instigated 6 weeks prior to the commencement of treatment in order to design the study as a treatment/reversal set-up rather than prophylaxis.
After 6 weeks of either the CS- or CDAA diet, mice were orally administered Compound A or comparison Compound N, both at 2 doses, 0.15 mmol/kg bw/day (low-dose, LD) and 0.3 mmol/kg bw per day (high-dose, HD). The test substances were administered orally as admix to the high-fat diet. Hepatic fibrosis was assessed by both measurement of hydroxyproline (HYP) content and Sirius Red (SR) morphometry. Fibrosis, inflammation and metabolism related transcripts levels were measured by quantitative real-time polymerase chain reaction (qPCR).
Studies were performed in male C56BL/6J mice (9 weeks old). Mice were divided into 6 experimental groups (n=9 per group) containing either CS or CDAA/high-fat diets, as described above. The NASH inducing CDAA/high fat diet was instigated 6 weeks prior to the commencement of treatment in order to assess treatment/reversal rather than prophylaxis. […] Compound A was administered orally as admix to the high-fat diet whilst GLP-1 agonist was delivered via intraperitoneal injection (i.p.). Fibrosis, inflammation and metabolism related transcripts levels were measured by quantitative real-time polymerase chain reaction (qPCR) in isolated liver tissue.

## CC/C=C\C/C=C\C/C=C\C/C=C\C/C=C\CCCCOC(CC)C(=O)O (stereo not drawn) [Compound A, 2-((5Z,8Z,11Z,14Z,17Z)-icosa-5,8,11,14,17-pentaenyloxy)butanoic acid]
[1]
  cell viability (MTS assay): neither Compound A nor OA showed a significant effect
ob/ob AMLN mice
  steatosis (percent area or total lipid content): significantly reduced
APOE*3Leiden.CETP mice
  Hepatic CE: 17*
  Hepatic FC: 9.5
  Hepatic TG: 58.8
STAM (model) mice
  Fibrosis area (%): 0.79%
Col1a1 mRNA; Compound A 0.3 mmol/kg bw/day oral, GLP-1a 0.4 mg/kg once weekly i.p., alone or combined
  Col1a1 (relative mRNA expression): 6.2***
Col1a1 mRNA; HD 0.3 mmol/kg bw per day
  Col1a1 (relative mRNA expression): 6***
Col1a1 mRNA; LD 0.15 mmol/kg bw/day
  Col1a1 (relative mRNA expression): 10***
